{"source": "paper PMC9661473", "key": {"[1]": {"tested_on": "2N3M (DNA, aptamer) TGGTGGTGGTTGTTGTGGTGGTGGTGGT", "experiment": "microscale thermophoresis", "settings": "100 mM KCl; 25 mM potassium phosphate, pH 7.05, 25 °C, 200 nM aptamer"}, "[2]": {"tested_on": "DNA TA (DNA, aptamer) GGTTGGTGTGGTTGG", "experiment": "microscale thermophoresis", "settings": "100 mM KCl; 25 mM PBS, pH 7.05, 25 °C, 200 nM aptamer"}, "[3]": {"tested_on": "2N3M (DNA, aptamer) TGGTGGTGGTTGTTGTGGTGGTGGTGGT", "experiment": "microscale thermophoresis, Hill fit", "settings": "100 mM KCl; 25 mM potassium phosphate, pH 7.05, 25 °C, 200 nM aptamer"}, "[4]": {"tested_on": "DNA TA (DNA, aptamer) GGTTGGTGTGGTTGG", "experiment": "microscale thermophoresis, Hill fit", "settings": "100 mM KCl; 25 mM PBS, pH 7.05, 25 °C, 200 nM aptamer"}, "[5]": {"tested_on": "RNA TA (RNA, aptamer) GGUUGGUGUGGUUGG", "experiment": "microscale thermophoresis, Hill fit", "settings": "100 mM KCl; 25 mM PBS, pH 7.05, 40 °C, 200 nM aptamer"}, "[6]": {"tested_on": "DNA TA (unlabeled, NMR) (DNA, aptamer) GGTTGGTGTGGTTGG", "experiment": "1H 1D and 2D NOESY NMR", "settings": "100 mM KCl; 25 mM potassium phosphate, pH 7.4, 298 K, 10% D2O, 500 μM DNA, 2 equiv YER"}, "[7]": {"target": "T1, ERN tripeptide (thrombin loop fragment) (UniProt P00734 435-437)", "T1 chain": "ERN", "experiment": "MST; 100 mM KCl, 25 C; MST: 200 nM FAM-oligo; 25 mM PBS pH 7.05, 100 mM KCl (DNA TA 25 C, RNA TA 40 C) or 25 mM K-phosphate pH 7.05, 100 mM KCl (2N3M, 25 C), Hill fit; NMR: 500 uM DNA TA, 25 mM K-phosphate pH 7.4, 100 mM KCl, 10% D2O, 298 K", "settings": "label: 5'-FAM; intramolecular G-quadruplex"}, "[8]": {"target": "T2, RYE tripeptide (thrombin loop fragment) (UniProt P00734 433-435)", "T2 chain": "RYE", "experiment": "MST; 100 mM KCl, 25 C; MST: 200 nM FAM-oligo; 25 mM PBS pH 7.05, 100 mM KCl (DNA TA 25 C, RNA TA 40 C) or 25 mM K-phosphate pH 7.05, 100 mM KCl (2N3M, 25 C), Hill fit; NMR: 500 uM DNA TA, 25 mM K-phosphate pH 7.4, 100 mM KCl, 10% D2O, 298 K", "settings": "label: 5'-FAM; intramolecular G-quadruplex"}, "ER dipeptide": {"target": "T3, ER dipeptide (UniProt P00734 435-436)", "T3 chain": "ER", "experiment": "MST; 100 mM KCl, 25 C; MST: 200 nM FAM-oligo; 25 mM PBS pH 7.05, 100 mM KCl (DNA TA 25 C, RNA TA 40 C) or 25 mM K-phosphate pH 7.05, 100 mM KCl (2N3M, 25 C), Hill fit; NMR: 500 uM DNA TA, 25 mM K-phosphate pH 7.4, 100 mM KCl, 10% D2O, 298 K", "settings": "label: 5'-FAM; intramolecular G-quadruplex"}, "YE dipeptide": {"target": "T4, YE dipeptide (UniProt P00734 434-435)", "T4 chain": "YE", "experiment": "MST; 100 mM KCl, 25 C; MST: 200 nM FAM-oligo; 25 mM PBS pH 7.05, 100 mM KCl (DNA TA 25 C, RNA TA 40 C) or 25 mM K-phosphate pH 7.05, 100 mM KCl (2N3M, 25 C), Hill fit; NMR: 500 uM DNA TA, 25 mM K-phosphate pH 7.4, 100 mM KCl, 10% D2O, 298 K", "settings": "label: 5'-FAM; intramolecular G-quadruplex"}, "[9]": {"target": "T5, YER tripeptide (thrombin loop fragment) (UniProt P00734 434-436)", "T5 chain": "YER", "experiment": "MST; 100 mM KCl, 25 C; MST: 200 nM FAM-oligo; 25 mM PBS pH 7.05, 100 mM KCl (DNA TA 25 C, RNA TA 40 C) or 25 mM K-phosphate pH 7.05, 100 mM KCl (2N3M, 25 C), Hill fit; NMR: 500 uM DNA TA, 25 mM K-phosphate pH 7.4, 100 mM KCl, 10% D2O, 298 K", "settings": "label: 5'-FAM; intramolecular G-quadruplex"}, "[10]": {"target": "T5, YER tripeptide (thrombin loop fragment)", "experiment": "MST; 100 mM KCl, 40 C; MST: 200 nM FAM-oligo; 25 mM PBS pH 7.05, 100 mM KCl (DNA TA 25 C, RNA TA 40 C) or 25 mM K-phosphate pH 7.05, 100 mM KCl (2N3M, 25 C), Hill fit; NMR: 500 uM DNA TA, 25 mM K-phosphate pH 7.4, 100 mM KCl, 10% D2O, 298 K", "settings": "label: 5'-FAM; intramolecular G-quadruplex (modelled)"}, "[11]": {"target": "T6, RET tripeptide (nucleolin loop fragment) (UniProt P19338 604-606)", "T6 chain": "RET", "experiment": "MST; 100 mM KCl, 25 C; MST: 200 nM FAM-oligo; 25 mM PBS pH 7.05, 100 mM KCl (DNA TA 25 C, RNA TA 40 C) or 25 mM K-phosphate pH 7.05, 100 mM KCl (2N3M, 25 C), Hill fit; NMR: 500 uM DNA TA, 25 mM K-phosphate pH 7.4, 100 mM KCl, 10% D2O, 298 K", "settings": "label: 5'-FAM; intramolecular G-quadruplex"}, "[12]": {"target": "T7, QET tripeptide (RET analogue) (UniProt P19338 604-606, R604Q)", "T7 chain": "QET", "experiment": "MST; 100 mM KCl, 25 C; MST: 200 nM FAM-oligo; 25 mM PBS pH 7.05, 100 mM KCl (DNA TA 25 C, RNA TA 40 C) or 25 mM K-phosphate pH 7.05, 100 mM KCl (2N3M, 25 C), Hill fit; NMR: 500 uM DNA TA, 25 mM K-phosphate pH 7.4, 100 mM KCl, 10% D2O, 298 K", "settings": "label: 5'-FAM; intramolecular G-quadruplex"}, "[13]": {"target": "T8, REV tripeptide (RET analogue) (UniProt P19338 604-606, T606V)", "T8 chain": "REV", "experiment": "MST; 100 mM KCl, 25 C; MST: 200 nM FAM-oligo; 25 mM PBS pH 7.05, 100 mM KCl (DNA TA 25 C, RNA TA 40 C) or 25 mM K-phosphate pH 7.05, 100 mM KCl (2N3M, 25 C), Hill fit; NMR: 500 uM DNA TA, 25 mM K-phosphate pH 7.4, 100 mM KCl, 10% D2O, 298 K", "settings": "label: 5'-FAM; intramolecular G-quadruplex"}}, "note": "Where a SMILES comes first, the peptide text is derived from it."}
{"molecule": "C[C@@H](O)[C@H](N)C(=O)O", "values": [{"measurement": "binding", "setting": "[1]", "result": "no"}]}
{"molecule": "N=C(N)NCCC[C@H](N)C(=O)O", "values": [{"measurement": "binding", "setting": "[1]", "result": "no"}, {"measurement": "binding", "setting": "[2]", "result": "no"}]}
{"molecule": "N[C@@H](CCC(=O)O)C(=O)O", "values": [{"measurement": "binding", "setting": "[1]", "result": "no"}, {"measurement": "binding", "setting": "[2]", "result": "no"}]}
{"molecule": "N[C@@H](Cc1ccc(O)cc1)C(=O)O", "values": [{"measurement": "binding", "setting": "[2]", "result": "no"}]}
{"molecule": "C[C@@H](O)[C@H](NC(=O)[C@H](CCC(=O)O)NC(=O)[C@@H](N)CCCNC(=N)N)C(=O)O", "note": "(H-Arg-Glu-Thr-OH)", "values": [{"measurement": "Kd", "setting": "[3]", "result": "0.1 ± 0.02", "unit": "µM"}]}
{"molecule": "CC(C)[C@H](NC(=O)[C@H](CCC(=O)O)NC(=O)[C@@H](N)CCCNC(=N)N)C(=O)O", "note": "(H-Arg-Glu-Val-OH)", "values": [{"measurement": "binding", "setting": "[1]", "result": "no"}]}
{"molecule": "N=C(N)NCCC[C@H](N)C(=O)N[C@@H](Cc1ccc(O)cc1)C(=O)N[C@@H](CCC(=O)O)C(=O)O", "note": "(H-Arg-Tyr-Glu-OH)", "values": [{"measurement": "Kd", "setting": "[4]", "result": "52 ± 5", "unit": "µM"}]}
{"molecule": "C[C@@H](O)[C@H](NC(=O)[C@H](CCC(=O)O)NC(=O)[C@@H](N)CCC(N)=O)C(=O)O", "note": "(H-Gln-Glu-Thr-OH)", "values": [{"measurement": "binding", "setting": "[1]", "result": "no"}]}
{"molecule": "N=C(N)NCCC[C@H](NC(=O)[C@@H](N)CCC(=O)O)C(=O)N[C@@H](CC(N)=O)C(=O)O", "note": "(H-Glu-Arg-Asn-OH)", "values": [{"measurement": "Kd", "setting": "[4]", "result": "12 ± 1", "unit": "µM"}]}
{"molecule": "N=C(N)NCCC[C@H](NC(=O)[C@@H](N)CCC(=O)O)C(=O)O", "note": "(H-Glu-Arg-OH)", "values": [{"measurement": "binding", "setting": "[2]", "result": "no"}]}
{"molecule": "NC(N)=NCCC[C@H](NC(=O)[C@H](CCC(=O)O)NC(=O)[C@@H](N)Cc1ccccc1)C(=O)O", "note": "(H-Phe-Glu-Arg-OH)", "values": [{"measurement": "binding", "setting": "[2]", "result": "no"}]}
{"molecule": "N=C(N)NCCC[C@H](NC(=O)[C@H](CCC(=O)O)NC(=O)[C@@H](N)Cc1ccc(O)cc1)C(=O)O", "note": "(H-Tyr-Glu-Arg-OH)", "values": [{"measurement": "Kd", "setting": "[5]", "result": "37 ± 9", "unit": "µM"}, {"measurement": "Kd", "setting": "[4]", "result": "5 ± 1", "unit": "µM"}, {"measurement": "binding", "setting": "[6]", "result": "yes"}]}
{"molecule": "NCCCC[C@H](NC(=O)[C@H](CCC(=O)O)NC(=O)[C@@H](N)Cc1ccc(O)cc1)C(=O)O", "note": "(H-Tyr-Glu-Lys-OH)", "values": [{"measurement": "binding", "setting": "[2]", "result": "no"}]}
{"molecule": "N[C@@H](Cc1ccc(O)cc1)C(=O)N[C@@H](CCC(=O)O)C(=O)O", "note": "(H-Tyr-Glu-OH)", "values": [{"measurement": "binding", "setting": "[2]", "result": "no"}]}
{"molecule": "GGTTGGTGTGGTTGG (structured_DNA)", "note": "[DNA TA (FAM)]", "values": [{"measurement": "Kd", "setting": "[7]", "result": "12 ± 1", "unit": "µM"}, {"measurement": "Kd", "setting": "[8]", "result": "52 ± 5", "unit": "µM"}, {"measurement": "binding result", "setting": "ER dipeptide", "result": "no binding"}, {"measurement": "binding result", "setting": "YE dipeptide", "result": "no binding"}, {"measurement": "Kd", "setting": "[9]", "result": "5 ± 1", "unit": "µM"}]}
{"molecule": "GGUUGGUGUGGUUGG (structured_RNA)", "note": "[RNA TA (FAM)]", "values": [{"measurement": "Kd", "setting": "[10]", "result": "37 ± 9", "unit": "µM"}]}
{"molecule": "TGGTGGTGGTTGTTGTGGTGGTGGTGGT (structured_DNA)", "note": "[2N3M (AS1411 derivative, FAM)]", "values": [{"measurement": "Kd", "setting": "[11]", "result": "0.1 ± 0.02", "unit": "µM"}, {"measurement": "binding result", "setting": "[12]", "result": "no binding"}, {"measurement": "binding result", "setting": "[13]", "result": "no binding"}]}
